Measured values published in US11596716B2, “Compounds and matrices for use in bone growth and repair” (Human BioMolecular Research Institute, priority 2013, dated 2023).

Key:
hMSCs [1] = assay: qPCR of apoptosis biomarkers (Bax and Fos) in hMSCs; type: cell-based, human
hMSCs [2] = assay: TLR4/TLR3 mRNA expression ratio by qPCR in hMSCs; type: cell-based, human; settings: 500 nM, 8 days
Text: TLRs are modulators of hMSC differentiation. TLRs (TLR1-10) mRNA could be detected by qPCR in hMSCs. TLR4 is a biomarker for osteogenesis and TLR3 is a biomarker for adipogenesis. […]

C2C12 cells [3] = assay: Alkaline Phosphatase (ALP) functional activity assay in C2C12 cells; type: cell-based, Mouse; settings: for activation at 0.5 µM: Mus musculus, C2C12, 144 h, compounds of Formula VI, normalized to DMSO treatment
Protocol: Alkaline Phosphatase (ALP) Functional Activity Assay: C2C12 cells were plated into 12-well plates with 7,000 cells/well in 1 mL growth media. […] 1, 2, 3, or 4 in 0.1% DMSO was added (500 nM). Half the media was exchanged with fresh media containing compound every 48 hrs. After 6 days, media was removed, ALP Lysis Buffer (10 mM Tris-HCl pH 8.0, 1 mM MgCl2, and 1% Triton X100) added, and cell lysate obtained (10 min incubation at RT) by centrifugation (5 min at 3500× g at 4° C.). Para-nitrophenol phosphate (pNPP) (2 mg/mL) was incubated with 50 μl cell lysate (10 mins, 37° C.). After addition of […] 0.02 N NaOH, absorbance OD405 was measured. Protein concentration was determined by Bradford protein assay. Results of ALP activity were plotted as nM pNP hydrolyzed/mg total protein. After normalizing control samples (i.e., DMSO-treated samples) to one-fold, the fold-changes were plotted to indicate the relative ALP activity. […] This protocol was applied to hMSC and E15 cells as well.

hMSCs [4] = assay: Alkaline Phosphatase functional activity assay in hMSCs; type: cell-based, human; set-up: key to Alkaline Phosphatase activity, −matrix, 8 days / Alkaline Phosphatase activity, +matrix, 8 days / Alkaline Phosphatase activity, −matrix, 25 days / Alkaline Phosphatase activity, +matrix, 25 days: fold-change vs DMSO-treated control (control = 1); settings: 500 nM
C2C12 cells [5] = assay: qPCR detection of osteogenic markers in C2C12 cells; type: cell-based, Mouse; settings: 500 nM, 6 days
hMSCs [6] = assay: Transwell migration of hMSCs to calcium phosphate matrix; type: cell-based, human; settings: 500 nM
Protocol: Human MSC migration to the site of bone injury is an important part of the repair process. […] After 8 hrs, compounds were washed off the cells and cells placed in a traditional transwell migration system. The top reservoir contained serum-free DMEM and the bottom reservoir contained DMEM plus 2% FBS. After incubation overnight, non-migrated cells were removed, migrated cells (stuck in the bottom chamber) were then fixed with 70% EtOH (40 mins) and total migrated cells were counted under a microscope after staining with 1 mg/mL of crystal violet (1 hr). hMSCs treated with compound 2 (500 nM, 8 hr) induced a 10-fold greater cell migration to the matrix than DMSO-pre-treated cells under the conditions described above. In a separate experiment, matrix that was pre-coated with compound 4 (as prepared in Example 5) was placed in the bottom chamber and migration of hMSCs from the top chamber was evaluated. Compound 4-coated matrix induced a 2-fold increase in cell migration to the matrix compared to DMSO-treated cells.
hMSC migration was analyzed by using calcium phosphate matrix that had been pre-adsorbed with compounds 1 or 2 (500 nM, as described in Example 5) and studied in the transwell system (2% serum, described above). Compound 1 and 2 induced 3.5-fold and 1.9-fold more cell migration than non-coated ceramic. While non-limiting, these examples show the utility of the approach for increased cell migration and localization to the calcium phosphate ceramic matrix when compounds of the disclosure are present. Use of compounds of Formula II, IV, and VI to pre-coat the ceramic and also pretreat the cells is also of utility.

C2C12 cells [7] = assay: Alizarin Red S staining (calcium deposition) in C2C12 cells; type: cell-based, Mouse; settings: 500 nM, 25 days of treatment
Protocol: Alizarin Red S Staining: C2C12 cells were cultured as described for the ALP functional activity assay (above, except compound was added every 48 hr for 25 days), but using 48-well plate format. On day 25, medium was removed and the cells were washed with PBS (calcium and magnesium free). Cells were fixed with 70% ethanol at room temperature for 30 mins, rinsed with water 3×. Following removal of water, 200 μl of Alizarin Red S (2%, pH 4.1) was added to each well and incubated for at least 20 mins. The dye was removed and the cells were washed with excess H2O four times with gentle mixing. The cells were covered with water to prevent evaporation and analyzed by plate reader or microscope. This protocol was applied to hMSC and E15 cells.

hMSCs [8] = assay: Alamar blue cell viability assay in hMSCs; type: cell-based, human; settings: 500 nM, 25-day-old hMSCs
Protocol: (§1) Cell proliferation/viability assay: Cells were seeded at a density of 500 cells/well on 96-well plates. After 24 hr, compound (i.e., 5 nM, 50 nM, 500 nM or 5000 nM) was added to the cells in the presence or absence of calcium phosphate matrix (5 mg/mL). One-half of the media was replaced with fresh media containing compound every 48 hours for 8 days. At the specified time, 1 μg of Resazurin was added to each well of the 96-well plate and the fluorescence signal at 590 nm (excitation at 530 nm) was immediately measured. Readings were designated as time zero values (value0h). Cells were incubated for 1 hr before a second fluorescence measurement at 590 nm was made (value1h). The difference in 1 hr and 0 h (value1h−value0h) readings were used to plot the fold-change in cell proliferation/viability after normalizing to control conditions (i.e., DMSO vehicle treatment). Compounds of Formula II or IV that activate Wnt signaling and compounds of Formula VI that activate TLR signaling pathways were analyzed. This protocol was applied to hMSC and E15 cells as well. Cell proliferation was not robust in keeping with a narrow number of cells highly committed to the bone cell lineage.
The assay for cell proliferation followed the same procedure with hMSCs as described for C2C12 cells (Example 7).

C2C12 cells [9] = assay: Cell proliferation/viability assay (Resazurin / Alamar blue) in C2C12 cells; type: cell-based, Mouse
Protocol: as §1, with “One-half of the media was replaced with fresh media containing compound every 48 hours for 8 days.” left out

C2C12 cells [10] = assay: qPCR of apoptosis biomarkers (Bax and Fos) in C2C12 cells; type: cell-based, Mouse; settings: 500 nM or 5 μM every 48 hrs, up to 25 days
Wnt transcription = assay: WNT transcriptional reporter assay (Super(8×)TOPflash luciferase, HEK293T cells); type: cell-based; settings: Wnt3A-expressing vector, 20 hrs, relative to cells treated with DMSO alone, read-out: Wnt transcription potency
Text: Commercially available Super(8×)TOPflash vector driven by a (7×) TCF-firefly luciferase response element was transiently transfected into HEK293T cells, together with a TK-driven Renilla luciferase plasmid as an internal control to normalize the luminescence signal and a Wnt3A-expressing vector as the source of pathway activation. HEK293T cells were transfected with plasmids in DMEM plus 10% fetal bovine serum (FBS) for 8 hr, replated to 96-well plates in DMEM plus 10% FBS followed by treatment with compounds (1.6 nM to 5 M) (DMSO final concentration is 0.5%) for 20 hrs. Firefly and Renilla luciferase activities were measured and normalized by the Renilla luciferase values.

hMSCs [11] = assay: qPCR of target gene mRNA expression in hMSCs; type: cell-based, human; settings: hMSCs, comparison with compound 3 and calcium phosphate ceramic
Protocol: qPCR detection of osteogenic markers: Cells were cultured with compound in the presence or absence of matrix as described above, but using 96-well plate format. Total RNA was extracted from cells (as above) using Trizol. cDNA was made using 750 ng of total RNA with Bio-Rad iscript kit and was diluted 20-fold before being used for qPCR. qPCR was conducted under the following conditions: 95° C., 2 min; 95° C., 10 s and 60° C., 45 s for 40 cycles; 60° C. for 71 cycles for melt curve. qPCR results were analyzed by the ΔΔCt method. 18s rRNA was used as an internal standard. This protocol was applied to hMSC and E15 cells.
Runx2 and BMP-2 are osteogenic markers; Axin2, Wnt3a, and Sox 9 are Wnt-inducible gene markers.
The assay for mRNA expression followed the same procedure with hMSCs as described for C2C12 cells (Example 7).

Solubility in water = type: physicochemical
[12] = matrix 5 mg/mL, mean +/− SD (n = 3)

Which “gene expression of apoptosis biomarkers (Bax and Fos)” value (hMSCs [1]; 500 nM to 5 μM, up to 25 days) does the source give for `Cc1nc2c(-c3ccccc3)cnn2c(NCCN(C)C)c1C` [Compound 2, 3-phenyl-5,6-dimethyl-7-[N-(2-N,N-dimethylaminoethyl)amino]-pyrazolo[1,5-a]pyrimidine] here?
Its value is “unable to detect gene expression of typical apoptosis biomarkers”.

What about the “cytotoxicity as determined by quantification of apoptosis” value (hMSCs [1]; hMSCs) of the same compound?
Its value is “no cytotoxicity”.

What about the “TLR4/TLR3 ratio, compound alone” value (hMSCs [2]) of the same compound?
Its value is “modest increase”.

And the “ALP activity, combination of compound and matrix compared to compound alone or matrix alone” value (C2C12 cells [3]; 500 nM, 6 day incubation, tricalcium phosphate ceramic matrix 5 mg/mL (FIG. 2))?
Its value is “synergistic increase in ALP activity”.

What about the “ALP activity fold-changes +/− SD, +matrix” value (C2C12 cells [3]; 500 nM, 6 days of culture, calcium phosphate ceramic 5 mg/mL) of the same compound?
Its value is 23.6 ± 2.5 fold.

What about the “ALP functional activity, compound and matrix versus compound alone or matrix alone” value (hMSCs [4]; 8 and 25 day incubations, matrix 5 mg/mL (FIG. 3)) of the same compound?
The value was “exceeded the effect of compound alone or matrix alone”.

And the “Alkaline Phosphatase activity, +matrix, 8 days” value (hMSCs [4]; [12])?
The value was 2.6 ± 0.3.

What about the “Alkaline Phosphatase activity, +matrix, 25 days” value (hMSCs [4]; [12]) of the same compound?
Its value is 4.5 ± 0.4.

What about the “Alkaline Phosphatase activity, −matrix, 25 days” value (hMSCs [4]; mean +/− SD (n = 3)) of the same compound?
Its value is 2.6 ± 0.3.

And the “Alkaline Phosphatase activity, −matrix, 8 days” value (hMSCs [4]; mean +/− SD (n = 3), fold)?
The value was 1.5 ± 0.1.

What about the “ID3 mRNA expression, presence of matrix” value (C2C12 cells [5]) of the same compound?
Its value is 1.7 fold.

And the “cell migration to the matrix, hMSCs pre-treated with compound, versus DMSO-pre-treated cells” value (hMSCs [6]; 8 hr pre-treatment, transwell overnight)?
Its value is 10 fold.

What about the “cell migration to matrix pre-adsorbed with compound versus non-coated ceramic” value (hMSCs [6]; transwell, 2% serum) of the same compound?
Its value is 1.9 fold.

What about the “calcium deposition, absence of matrix” value (C2C12 cells [7]) of the same compound?
The value was 2.0 fold.

What about the “calcium deposition, presence of matrix” value (C2C12 cells [7]) of the same compound?
The value was 2.3 fold.

And the “cell viability (Alamar blue)” value (hMSCs [8])?
Its value is “no decrease in cell viability”.

What about the “cell viability (Alamar blue)” value (C2C12 cells [9]; 500 nM every 48 hrs for 25 days) of the same compound?
The value was “did not show a decrease in cell viability”.

And the “gene expression of apoptosis biomarkers (Bax and Fos)” value (C2C12 cells [10])?
Its value is “unable to detect gene expression of typical apoptosis biomarkers”.

What about the EC50 (Wnt transcription) of the same compound?
Its EC50 is > 40 nM.

Which activation at 0.5 µM (C2C12 cells [3]; absence of matrix) does the source give for `O=C(C=Cc1ccc(O)cc1)C=C(O)C=Cc1ccc(O)cc1` [Compound 54, 1,7-Bis(4-hydroxyphenyl)-5-hydroxy-hepta-1,4,6-trien-3-one] here?
Its activation at 0.5 µM is 5 to 50%.

And the activation at 0.5 µM (C2C12 cells [3]; presence of calcium phosphate matrix)?
The activation at 0.5 µM was 50 to 100%.

And the “robust mRNA up-regulation of VDR or ALP” value (hMSCs [11])?
The value was “not observed”.

And the solubility in water (Solubility in water)?
The solubility in water was “only sparingly soluble”.

What about the “increase in cell proliferation (Alamar Blue Assay)” value (C2C12 cells [9]; 50 nM, 3 days) of the same compound?
Its value is 2 fold.
